From PubChem BioAssay AID1996
Values after ≈ are worked out from the molar mass of the structure shown.

Conditions: buffer; pH 7.4; 200.0 µM

Compound | solubility kinetic [µg/mL]
CC(C)OC(=O)CSc1nc(Cc2ccccc2)nc2ccccc12 | < 0.4
CCNC(=O)c1cc(S(=O)(=O)N2CCSCC2)ccc1OC | 45.1 (≈ 131 µM)
O=C(Nc1ccccc1)C1CC(=O)n2c(nc3ccccc32)N1 (stereo unspecified) | 0.9 (≈ 2.94 µM)
CCOc1ccc2oc(C(=O)Nc3nccs3)c(C)c2c1 | 2.2 (≈ 7.28 µM)
COc1ccc(C2C(C(C)=O)=C(O)C(=O)N2c2ccc(F)cc2)cc1 (stereo unspecified) | 48.5 (≈ 142 µM)
COc1ccc(N2Cc3ccc(OC)c(OC)c3C2=O)cc1 | > 44.9
Fc1ccc(N2CCN(C3CCC(c4ccccc4)CC3)CC2)cc1 (stereo unspecified) | 1.1 (≈ 3.25 µM)
NC(=O)Cn1cc(C(=O)C(=O)N2CCOCC2)c2ccccc21 | > 47.3
CN(C)c1cc[n+](CC(=O)Nc2cccc([N+](=O)[O-])c2)cc1.[Cl-] | > 50.5
Cc1ccc(S(=O)(=O)Nc2ccccc2C(O)c2ccccc2)cc1 (stereo unspecified) | 6.1 (≈ 17.3 µM)
COc1ccc(C)cc1N(CC(=O)N1CCCCCC1)S(C)(=O)=O | 38.1 (≈ 107 µM)
O=C(Cc1cccs1)NCc1cccc(Cl)c1 | > 39.9
O=C(O)/C=C/C(=O)NCCC(c1ccccc1)c1ccccc1 | > 46.4
CC(C)C(NC(=O)c1c(F)cccc1F)C(=O)N1CCN(c2ncccn2)CC1 (stereo unspecified) | 12.1 (≈ 30 µM)
CCOc1ccc(NC(=O)Cc2c(C(=O)O)n(C)c3ccccc23)cc1 | > 52.9
O=C(NCC(=O)N1CCCCCC1)c1ccc(OC(F)F)cc1 | > 49
Cc1cccc(OCC(=O)NCCCNC(=O)c2ccccn2)c1 | 45.4 (≈ 139 µM)
COCC(C)NC(C(=O)Nc1cccc(C(C)=O)c1)c1ccccc1 (stereo unspecified) | > 51.1
COC(=O)c1ccc(NC(=O)c2ccc3nccnc3c2)cc1 | 3.5 (≈ 11.4 µM)
Cc1ccc(OCC(=O)NCCCNC(=O)c2ccccn2)cc1C | 45.4 (≈ 133 µM)
CC(=O)N1CCN=C1SCc1cccc(F)c1 | 36.5 (≈ 145 µM)
Cc1cc2sc3nc(=O)n(-c4ccccc4)c(=O)n3c2cc1C | 5.8 (≈ 17.9 µM)
CCNC(=O)COC(=O)c1[nH]c(C)c(C(=O)OC)c1C | > 42.3
O=C(O)CC[N+](=O)[O-] | > 17.9
CCNC(=O)COC(=O)c1cc(C)nc2ccccc12 | > 40.8

Compound | solubility kinetic [µg/mL]
O=C(CN1C(=O)NC2(CCCC2)C1=O)NCc1cccc(Cl)c1 | 42.4 (≈ 126 µM)
O=[N+]([O-])c1ccccc1S(=O)(=O)N1CCN(c2ccccc2)CC1 | 7.2 (≈ 20.7 µM)
Cc1ccc(OCC(=O)Nc2ccc3oc(=O)ccc3c2)cc1C | < 0.7
Cc1ccc(Cl)c(OCC(=O)OCC(=O)c2ccc[nH]2)c1 | 8.7 (≈ 28.3 µM)
Cc1nc(-c2ccc([N+](=O)[O-])cc2)nc2[nH]ccc(=O)c12 | 0.9 (≈ 3.19 µM)
Cc1ccccc1CSCCC(=O)NCCc1ccccc1 | 9.8 (≈ 31.3 µM)
CN(Cc1ccccc1N1CCCC1)C(=O)c1cc2ccccc2o1 | 11.1 (≈ 33.2 µM)
CC(=O)N1c2ccccc2C(CBr)=CC1(C)C | 31.8 (≈ 108 µM)
C#CC(C)OC(=O)Nc1cnccc1C(F)(F)F (stereo unspecified) | 36 (≈ 139 µM)
CS(=O)(=O)N(CC(=O)N1CCCC1)c1ccccc1F | > 45.1
O=C(c1cccc(Cl)c1)N1CCCc2ccccc21 | 33.6 (≈ 124 µM)
Cc1cccc(N2CC(C(=O)O)CC2=O)c1C (stereo unspecified) | > 35
O=C(NCCN1CCOCC1)NC1(C(F)(F)F)Oc2ccc(Cl)cc2O1 (stereo unspecified) | > 59.4
Cc1cc(C)nc(SCC(=O)N2CCc3ccccc32)n1 | 3.4 (≈ 11.4 µM)
COc1ccccc1C(=O)N1CCC(N2CCN(c3ccccc3)CC2)CC1 | 41.5 (≈ 109 µM)
O=C(CCCCCN1C(=O)c2ccccc2C1=O)Nc1cccc(O)c1 | 38.4 (≈ 109 µM)
CN1CCN(NC(=O)c2cccc(C(F)(F)F)c2)CC1 | > 43.1
O=C(NCc1ccco1)c1ccccc1 | > 30.2
O=C(Nc1ccccc1[N+](=O)[O-])C1COc2ccccc2O1 (stereo unspecified) | 1 (≈ 3.33 µM)
O=C(O)c1ccccc1-n1cccc1C(=O)O | > 34.7
CC(=O)Nc1c(-c2ccccc2Cl)c(=O)c2ccccc2n1C | > 49
CCN(C(=O)/C=C/c1ccccc1)C1CCCCC1 | > 38.6
COc1ccc(/C=C/C(=O)NCc2ccc3c(c2)OCO3)cc1OC | 2.8 (≈ 8.2 µM)
OC(C#CCCN1CCCCC1)(c1ccccc1)C1CCCCC1 (stereo unspecified) | 25.1 (≈ 77.1 µM)
Cc1ccc(CNC(=O)c2ccc3c(c2)NC(=O)CS3)cc1 | 3.1 (≈ 9.92 µM)

Compound | solubility kinetic [µg/mL]
CCN(CC)CCOc1ccc(/C(=C(/Cl)c2ccccc2)c2ccccc2)cc1 | 1.5 (≈ 3.69 µM)
Cc1ccc(NC(=O)C2CCCCC2C(=O)O)cc1Cl (stereo unspecified) | > 44.4
Cn1c(=O)c2c(nc(Oc3ccccc3Cl)n2C)n(C)c1=O | 16 (≈ 49.9 µM)
O=C(OCc1ccc(Cl)c(Cl)c1)c1cccnc1Cl | < 0.7
COc1ccccc1NC(=O)CC1SC(=N)N(c2ccccc2)C1=O (stereo unspecified) | 5.3 (≈ 14.9 µM)
Cc1ccc(S(=O)(=O)NC23CC4CC(CC(C4)C2)C3)cc1 | 2.4 (≈ 7.86 µM)
COc1ccc(C)cc1S(=O)(=O)N1CC(C)OC(C)C1 (stereo unspecified) | > 44.9
Cc1cc(=O)oc2cc(OCCSCCN3CCCCC3)ccc12 | > 52.1
CC(=O)Nc1ccc2c(c1)ncn2-c1ccc(C)cc1 | 38.8 (≈ 146 µM)
Cc1cccc(C)c1Nc1ncnc2ccccc12.Cl | > 42.9
O=C(Nc1c(F)cccc1F)C(c1ccccc1)c1ccccc1 | < 0.7
C=CCn1c(SCC(=O)Nc2cc(C)on2)nnc1-c1ccccc1OC | > 57.8
Cn1cnc2c1c(=O)n(Cc1cccc(Cl)c1)c(=O)n2C | > 45.7
CC1CCc2c(sc3[nH]c(=S)n(C)c(=O)c23)C1 (stereo unspecified) | 4.2 (≈ 15.8 µM)
O=C(/C=C\N1CCOCC1)c1ccc(Br)cc1 | > 44.4
O=C(Nc1ccccc1)Nc1sccc1-c1nc2ccccc2s1 | 3.8 (≈ 10.8 µM)
COc1ccc(-c2csc(NC(=O)Cc3ccccc3)n2)cc1OC | 0.7 (≈ 1.97 µM)
COc1ccc(/C=C2/N=C(SC)NC2=O)cc1OC | 10.1 (≈ 36.3 µM)
O=C(COC(=O)c1cnccn1)NC(=O)c1ccccc1 | > 42.8
CCCCCC(=O)OC(CN1CCCC1=O)C[NH+]1CCCCCC1.[Cl-] (stereo unspecified) | > 56.2
O=C(O)CN=CC1=C(O)CC(c2ccccc2)CC1=O (stereo unspecified) | 39.9 (≈ 146 µM)
CCCCOc1ccc(C2=CSC3=NCCN23)cc1[N+](=O)[O-] | > 47.9
Cc1[nH]c2ccccc2c1SCC(=O)N1CCC(C)CC1 | > 45.4
Cc1ccc(NC(=O)C(=O)c2c[nH]c3ccccc23)cc1 | < 0.3
O=C(c1ccccc1)c1cc2cc(Cl)ccc2[nH]1 | < 0.5

Compound | solubility kinetic [µg/mL]
CCn1ccnc1CNC(=O)c1ccc2oc(C(C)C)nc2c1 | > 46.9
COCCN1C(=O)NC(=O)/C(=C\c2ccc(F)cc2)C1=O | 33.5 (≈ 115 µM)
CCCc1cc(=O)[nH]c(SCC(=O)Nc2ccc(C(=O)Nc3ccccc3OC)cc2)n1 | 6.7 (≈ 14.8 µM)
O=C(COc1cccc2c1CCNC2=O)Nc1ccc(F)cc1 | > 47.1
CC(=O)Nc1ccc(N2C(=O)CC(Sc3nccc(C)n3)C2=O)cc1 (stereo unspecified) | > 53.5
N#C/C(=C\c1ccc(F)cc1F)S(=O)(=O)c1ccccn1 | 42.4 (≈ 138 µM)
O=C(NCCO)C1COc2ccccc2O1 (stereo unspecified) | > 33.5
CCOc1ccc(NC(=O)/C(C=Nc2ccccc2)=C(\C)O)cc1 | 1 (≈ 3.08 µM)
Cc1ccc(C(=O)NC2CC3CCC(C2)N3C)cc1 (stereo unspecified) | > 38.8
Cc1cc(C)cc(NC(=O)Nc2cnccn2)c1 | 2.4 (≈ 9.91 µM)
CCc1noc(C)c1C(=O)OCC(=O)Nc1cccc(C)c1 | 20.4 (≈ 67.5 µM)
CCOc1ccccc1NC(=O)CN1CCC(NC(=O)Nc2ccccc2)CC1 | 18.5 (≈ 46.7 µM)
CCC(Oc1ccc(F)cc1)C(=O)N1CCCCCCC1 (stereo unspecified) | 34.8 (≈ 119 µM)
O=S(=O)(NCCc1ccccc1)c1ccc(Br)cc1 | 3.5 (≈ 10.3 µM)
Clc1cccc(CN2CCSCC2)c1 | 3.8 (≈ 16.7 µM)
O=C(CN1CCOCC1)NNc1c2ccccc2nc2ccccc12 | > 50.5
CSc1ccc(S(=O)(=O)N2CC(=O)Nc3ccccc32)cc1 | 14.4 (≈ 43.1 µM)
O=C1CN(S(=O)(=O)c2ccc(F)cc2)CCN1 | > 38.7
O=C(Nc1ccc(S(=O)(=O)N2CCCCC2)cc1)C1CCCO1 (stereo unspecified) | 39.9 (≈ 118 µM)
Cc1ccccc1C(=O)NC1CCSC1=O (stereo unspecified) | > 35.3
CCn1c(SCC(=O)N2CCOCC2)nnc1-c1ccco1 | > 48.4
CCC(=O)Nc1ccc(C2C(=O)c3ccccc3C2=O)cc1 | > 44
O=C(N/N=C\c1cccnc1)c1ccc(Cl)cc1Cl | > 44.1
CCN(CC)CCNC(=O)Cn1ncc2ccccc2c1=O | > 45.4
Oc1ccc2ccccc2c1CNc1ccc(Br)cc1 | 5.5 (≈ 16.8 µM)

Compound | solubility kinetic [µg/mL]
O=C(c1cc2ccccc2o1)N1CCCC1 | > 32.3
CC(C)c1ccc(Nc2nc(Cl)nc(NCCO)n2)cc1 | 2.7 (≈ 8.77 µM)
C=CCNC(=S)Nc1cc(C)ccn1 | > 31.1
O=C(NC(=S)Nc1cccc([N+](=O)[O-])c1)c1ccccc1 | 1.2 (≈ 3.98 µM)
CCN(CC)CC(=O)Nc1sc(C)cc1C(=O)c1ccc(C)cc1 | 0.4 (≈ 1.16 µM)
Cc1cnc(C(=O)OCC(=O)NCc2ccc(Cl)cc2)cn1 | > 48
COC(=O)c1nccnc1C(=O)Nc1ccccc1N1CCOCC1 | > 51.4
Cc1cc(C(=O)NNC(=O)C(CCC(N)=O)NS(=O)(=O)c2ccc(Cl)cc2)c(C)o1 (stereo unspecified) | > 68.5
Cc1ccc(OCC(=O)NC2CCS(=O)(=O)C2)c(C)c1 (stereo unspecified) | > 44.6
O=S(=O)(c1cnccc1N1CCN(CCO)CC1)N1CCCCC1 | > 53.2
CC(NC(=O)c1ccncc1)c1ccccc1 (stereo unspecified) | 26.5 (≈ 117 µM)
COc1ccc(NC(=O)COC(=O)CN2C(=O)C3CC=CCC3C2=O)c([N+](=O)[O-])c1 (stereo unspecified) | > 62.6
CC(=O)c1c(-c2ccc(C)cc2)nc2c3ccccc3ccn12 | < 0.3
Cc1ccccc1NC(=O)COC(=O)CC1CCCC1 | > 41.3
COn1c(-c2ccccc2)c(C=O)c2ccccc21 | 2.4 (≈ 9.55 µM)
CCC(C(=O)Nc1cccnc1Cl)c1ccccc1 (stereo unspecified) | 30.2 (≈ 110 µM)
Nc1ccccc1SC1CC(=O)N(c2ccc3c(c2)OCO3)C1=O (stereo unspecified) | < 0.4
COc1ccc2nc(NC(=O)NC3CCCCC3)sc2c1 | < 0.2
CCOc1ccc(NC(=O)N2CCc3ccccc3C2)cc1 | 3.7 (≈ 12.5 µM)
CC(C)COP(=O)(c1ccc(N(C)C)cc1)C(O)c1cccnc1 (stereo unspecified) | 49.6 (≈ 142 µM)
O=C(O)c1cc(S(=O)(=O)N2CCCCC2)ccc1N1CCCC1 | > 50.8
